# Results published in US20100247659A1, “PHENYLPHTHALIMIDE ANALOGS FOR TREATING DIABETIC MACULAR EDEMA” (Charlesson, LLC, priority 2007, published 2010).
# Assays:
# [1] = test system: normal BN rats; assay: Ocular toxicity, ERG recording; type: in vivo, rat; settings: 2 μg/eye intravitreal, weeks 1-4
# Procedure: Electroretinogram (ERG) recording: Full-field ERGs were recorded by Espion E^2 ERG system (Diagnosys LLC) as described previously (Rohrer, Journal of Neuroscience, 1999, 19: […]) by two protocols: (A) 10 ms flashes of increasing light intensities under scotopic and photopic conditions, and (B) 2 Hz flicker ERG under photopic conditions. BN rats received an intravitreal injection of Compound 4 (2.0 μg/eye, 5 μl/eye of 0.4 mg/ml in BN rat serum) or equal amount of BN rat serum, respectively. At various intervals after injection, the peak a-wave amplitude was measured from baseline to the initial negative-going voltage, whereas peak b-wave amplitude was measured from the trough of the a-wave to the peak of the positive b-wave. Flicker amplitudes were measured from the preceding trough to the peak of the flicker response. Data was expressed as mean±SD and compared between the compound-injected eyes and control eyes by the paired Student's t-test.
# To test the potential ocular toxicities of Compound 4, normal rats at age of 8 weeks received an intravitreal injection of a high dose of Compound 4, 2 μg/eye (5 μl/eye of 0.4 mg/ml in BN rat serum) or an equal amount of BN rat serum as the vehicle control. Prior to study initiation, and after weeks 1, 2, 3, and 4 following the injection, visual function was evaluated by ERG recording. […]
# [2] = Drying at elevated temperature; type: physicochemical; settings: 70° C., 89 h
# Procedure: Synthesis of Compound 4 was successfully carried out via catalytic hydrogenation and via transfer hydrogenation. Catalytic hydrogenation required a longer reaction time (24 h) under 45-50 psi. This method requires specialized equipment. […] Scale-up of this reaction gave 99.2% pure material in 91% yield.
# A 12 L, 3-neck round bottom flask, equipped appropriately and under nitrogen, was charged with a slurry of 10% palladium on carbon (24.5 g, 10% (w/w)) in ethanol (200 proof, 1 L). To this slurry was charged (2,6-diisopropylphenyl)-5-nitro-1H-isoindole-1,3-dione (245.0 g, 0.70 mol) followed by ethanol (200 proof, 2.92 L, 3.92 L total, 16 mL/g) and triethylamine (311.7 g, 3.08 mol, 4.40 eq). Formic acid (135.8 g, 2.95 mol, 4.22 eq) was added slowly over 25 min. The slurry was heated to reflux and the reaction progress was monitored by HPLC. At 3.5 h, the mixture was filtered through a Celite bed to remove the catalyst. The filter bed was rinsed with ethanol (200 proof, 4×175 mL). The filtrate was then clarified through Whatman filter paper to remove any particulates. Ethanol (200 proof, 2×150 mL) was used as a rinse. To the solution was added water (deionized, 3.92 L), over 45 min. The resulting slurry was stirred at ambient temperature overnight. The following day, the slurry was cooled to 0-10° C. for 2 h. […]
# [3] = test system: OIR rats; assay: Retinal NV in OIR rats, fluorescein angiography; type: in vivo, rat
# Description: Induction of oxygen-induced retinopathy (OIR): Induction of OIR followed the procedure as described by Smith et al (Smith, et al. Invest. Opthalmol. Vis. Sci. 1994, 35: 101-111) with some modifications. Briefly, Newborn Brown Norway (BN) rats (Charles River Laboratories) at postnatal day 7 (P7) were exposed to hyperoxia (75% O2) for 5 days (P7-12) and then returned to normoxia (room air) to induce retinopathy.
# Retinal angiography with high-molecular-weight fluorescein: High molecular weight fluorescein-dextran was used in retinal angiography as described by Smith et al (Smith, et al. Invest. Opthalmol. Vis. Sci. 1994, 35:101-111). Briefly, animals were anesthetized with ketamine (100 mg/kg of body weight) plus acepromazine (5 mg/kg of body weight) and then perfused through the left ventricle with 50 mg/ml of high molecular weight fluorescein-dextran in PBS. The eyes were marked for orientation, enucleated, and fixed in 4% paraformaldeyde for 3-24 h. Several incisions were made and the retinas were flat-mounted on a gelatin-coated slide. The vasculature was then examined under a fluorescent microscope. Both the total retinal area and the area of the avascular regions were measured using a computerized image-analysis system and averaged within each group.
# Newborn BN rats were exposed to 75% oxygen from age P7 to P12. […]
# [4] = test system: HUVECs; assay: Tube formation assay on matrigel; type: cell-based, human; settings: 5 μM, 16 h
# Procedure: Eight-well slide chambers were coated with matrigel and at 37° C. and 5% CO2 for 30 min. HUVECs were then seeded at 30,000 cells/well in EGM-II containing either vehicle (0.5% DMSO), 5 μM of Compound 4 or thalidomide and incubated at 37° C. and 5% CO2 for 16 h. After incubation, slides were washed in PBS, fixed in 100% methanol for 10 s, and stained with DiffQuick solution II for 2 min. To analyze tube formation, each well was digitally photographed using a ×2.5 objective.
# Representative images were captured after incubation of vehicle, thalidomide and Compound 4 for 16 h.
structure (smiles),measurement,setting,value
CC(C)c1cccc(C(C)C)c1N1C(=O)c2ccc(N)cc2C1=O [Compound 4],ERG a-wave and b-wave amplitudes,[1],no detectable change in the a-wave and b-wave amplitudes
same,stability on drying,[2],does not cause decomposition
O=C1CCC(N2C(=O)c3ccccc3C2=O)C(=O)N1 (centres unmarked) [thalidomide],inhibition of retinal NV,"[3]; 1.0 μg/eye intravitreal, evaluated P20",lacked significant inhibition of retinal NV
same,"effect on retinal NV, angiographs (FIG. 9)","[3]; 5 μl of 0.8 mM per eye, angiography",did not reduce the NV
same,inhibition of tube formation,[4],did not show any inhibitory activity
